According to ChEMBL document CHEMBL1145498, “A systematic interaction map of validated kinase inhibitors with Ser/Thr kinases” (Proc Natl Acad Sci U S A, 2007):

molecular target: Calcium/calmodulin-dependent protein kinase type 1G (Homo sapiens) (UniProt Q96NX5)
Sequence (Q96NX5 whole entry): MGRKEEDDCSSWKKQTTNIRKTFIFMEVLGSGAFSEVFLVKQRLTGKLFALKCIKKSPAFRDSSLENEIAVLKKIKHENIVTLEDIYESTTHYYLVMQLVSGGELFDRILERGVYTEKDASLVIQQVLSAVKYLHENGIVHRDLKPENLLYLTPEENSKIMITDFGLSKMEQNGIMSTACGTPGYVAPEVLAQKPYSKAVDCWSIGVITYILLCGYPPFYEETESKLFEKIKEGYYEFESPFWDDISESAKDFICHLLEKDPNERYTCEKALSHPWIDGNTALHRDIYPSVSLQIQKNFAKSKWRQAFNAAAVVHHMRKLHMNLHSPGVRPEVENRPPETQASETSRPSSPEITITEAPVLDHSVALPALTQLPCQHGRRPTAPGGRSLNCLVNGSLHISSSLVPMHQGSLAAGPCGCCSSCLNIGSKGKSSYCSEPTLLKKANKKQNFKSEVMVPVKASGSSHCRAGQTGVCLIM

Row | SMILES | ΔTm
1 | OC[C@H]1O[C@@H](n2cnc3cc(Cl)c(Cl)cc32)[C@H](O)[C@@H]1O | -0.1 °C
2 | Cc1cncc2cccc(S(=O)(=O)N3CCCNC[C@@H]3C)c12 | -0.1 °C
3 | Nc1ncnc2c1c(I)cn2[C@@H]1O[C@H](CO)[C@@H](O)[C@H]1O | 0.2 °C
4 | Nc1n[nH]c2nnc(-c3c(-c4ccccc4)nn4ccccc34)cc12 | 0.1 °C
5 | O=C(O)Cc1ccc(O)c([N+](=O)[O-])c1 | 0.6 °C

molecular target: Cyclin-dependent kinase 6 (Homo sapiens) (UniProt Q00534)
Sequence (Q00534 whole entry): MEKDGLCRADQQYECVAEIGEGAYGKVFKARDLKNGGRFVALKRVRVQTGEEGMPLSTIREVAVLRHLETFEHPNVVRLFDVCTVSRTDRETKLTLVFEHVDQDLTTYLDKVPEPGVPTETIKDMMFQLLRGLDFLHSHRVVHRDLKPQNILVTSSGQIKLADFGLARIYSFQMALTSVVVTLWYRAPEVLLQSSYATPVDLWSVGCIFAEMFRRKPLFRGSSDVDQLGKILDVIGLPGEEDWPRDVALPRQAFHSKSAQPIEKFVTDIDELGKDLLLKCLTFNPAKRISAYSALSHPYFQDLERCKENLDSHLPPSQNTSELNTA

Row | SMILES | ΔTm
6 | OC[C@H]1O[C@@H](n2cnc3cc(Cl)c(Cl)cc32)[C@H](O)[C@@H]1O | -0.3 °C
7 | Cc1cncc2cccc(S(=O)(=O)N3CCCNC[C@@H]3C)c12 | -0.1 °C
8 | Nc1ncnc2c1c(I)cn2[C@@H]1O[C@H](CO)[C@@H](O)[C@H]1O | -0.2 °C
9 | Nc1n[nH]c2nnc(-c3c(-c4ccccc4)nn4ccccc34)cc12 | 1.7 °C
10 | O=C(O)Cc1ccc(O)c([N+](=O)[O-])c1 | 0.1 °C

molecular target: Dual specificity protein kinase CLK3 (Homo sapiens) (UniProt P49761)
Sequence (P49761 whole entry, looked up): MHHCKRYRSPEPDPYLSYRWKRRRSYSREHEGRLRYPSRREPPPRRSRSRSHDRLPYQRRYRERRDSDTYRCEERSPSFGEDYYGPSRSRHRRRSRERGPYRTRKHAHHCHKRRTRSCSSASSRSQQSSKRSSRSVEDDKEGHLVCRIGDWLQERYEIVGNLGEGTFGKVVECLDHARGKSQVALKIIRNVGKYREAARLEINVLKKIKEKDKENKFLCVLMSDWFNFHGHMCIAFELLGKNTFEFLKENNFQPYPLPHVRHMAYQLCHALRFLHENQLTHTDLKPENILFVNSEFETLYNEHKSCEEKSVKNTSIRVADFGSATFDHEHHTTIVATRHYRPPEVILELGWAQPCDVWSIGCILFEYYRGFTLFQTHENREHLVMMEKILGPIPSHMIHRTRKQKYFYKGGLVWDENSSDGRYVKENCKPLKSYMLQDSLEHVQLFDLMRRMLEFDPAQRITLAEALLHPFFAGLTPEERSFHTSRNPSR

Row | SMILES | ΔTm
11 | OC[C@H]1O[C@@H](n2cnc3cc(Cl)c(Cl)cc32)[C@H](O)[C@@H]1O | 1.4 °C
12 | Cc1cncc2cccc(S(=O)(=O)N3CCCNC[C@@H]3C)c12 | 2.6 °C
13 | Nc1ncnc2c1c(I)cn2[C@@H]1O[C@H](CO)[C@@H](O)[C@H]1O | 7.3 °C
14 | Nc1n[nH]c2nnc(-c3c(-c4ccccc4)nn4ccccc34)cc12 | 0.3 °C
15 | O=C(O)Cc1ccc(O)c([N+](=O)[O-])c1 | -0.6 °C

molecular target: T1, Mitogen-activated protein kinase kinase kinase 5 (Homo sapiens) (UniProt Q99683)
T1 sequence (whole entry): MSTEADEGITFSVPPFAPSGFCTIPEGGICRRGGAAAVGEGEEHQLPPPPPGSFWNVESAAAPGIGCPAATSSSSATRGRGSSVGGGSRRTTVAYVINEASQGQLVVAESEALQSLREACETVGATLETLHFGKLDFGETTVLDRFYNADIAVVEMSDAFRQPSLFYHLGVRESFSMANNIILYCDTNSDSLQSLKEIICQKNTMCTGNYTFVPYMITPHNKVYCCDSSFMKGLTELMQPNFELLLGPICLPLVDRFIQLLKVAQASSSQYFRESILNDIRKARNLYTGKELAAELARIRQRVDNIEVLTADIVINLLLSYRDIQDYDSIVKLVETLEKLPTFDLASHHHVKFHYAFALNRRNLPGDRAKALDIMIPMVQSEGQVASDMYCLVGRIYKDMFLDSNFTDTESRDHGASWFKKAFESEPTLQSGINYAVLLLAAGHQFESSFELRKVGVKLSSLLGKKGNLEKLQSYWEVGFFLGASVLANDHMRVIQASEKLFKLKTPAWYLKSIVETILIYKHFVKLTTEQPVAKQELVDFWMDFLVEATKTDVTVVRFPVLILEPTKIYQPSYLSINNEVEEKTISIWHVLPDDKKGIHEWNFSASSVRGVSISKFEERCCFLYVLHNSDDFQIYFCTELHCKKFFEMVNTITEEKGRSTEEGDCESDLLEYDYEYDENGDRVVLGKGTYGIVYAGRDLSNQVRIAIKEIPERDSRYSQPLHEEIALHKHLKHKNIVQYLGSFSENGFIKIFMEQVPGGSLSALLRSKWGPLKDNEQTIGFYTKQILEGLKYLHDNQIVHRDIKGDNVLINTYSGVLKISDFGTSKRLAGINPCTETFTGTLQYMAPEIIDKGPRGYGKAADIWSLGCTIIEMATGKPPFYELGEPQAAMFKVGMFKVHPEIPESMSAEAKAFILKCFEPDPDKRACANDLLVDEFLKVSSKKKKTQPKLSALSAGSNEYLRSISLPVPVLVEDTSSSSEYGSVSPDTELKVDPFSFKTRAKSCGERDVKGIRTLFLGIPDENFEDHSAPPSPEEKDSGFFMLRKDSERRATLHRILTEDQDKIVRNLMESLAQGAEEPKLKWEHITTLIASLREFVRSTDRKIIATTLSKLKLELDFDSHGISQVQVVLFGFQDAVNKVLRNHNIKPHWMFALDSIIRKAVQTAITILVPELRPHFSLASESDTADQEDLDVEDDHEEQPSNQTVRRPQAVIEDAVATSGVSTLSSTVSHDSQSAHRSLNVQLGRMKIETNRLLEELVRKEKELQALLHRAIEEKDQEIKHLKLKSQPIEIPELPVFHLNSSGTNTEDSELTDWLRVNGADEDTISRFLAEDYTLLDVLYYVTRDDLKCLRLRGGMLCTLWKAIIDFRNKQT

Row | SMILES | ΔTm
16 | OC[C@H]1O[C@@H](n2cnc3cc(Cl)c(Cl)cc32)[C@H](O)[C@@H]1O | -0.4 °C
17 | Cc1cncc2cccc(S(=O)(=O)N3CCCNC[C@@H]3C)c12 | 1.8 °C
18 | Nc1ncnc2c1c(I)cn2[C@@H]1O[C@H](CO)[C@@H](O)[C@H]1O | 0.9 °C
19 | Nc1n[nH]c2nnc(-c3c(-c4ccccc4)nn4ccccc34)cc12 | 0.6 °C
20 | O=C(O)Cc1ccc(O)c([N+](=O)[O-])c1 | -0.7 °C

molecular target: Mitogen-activated protein kinase 6 (Homo sapiens) (UniProt Q16659)
Sequence (Q16659 whole entry): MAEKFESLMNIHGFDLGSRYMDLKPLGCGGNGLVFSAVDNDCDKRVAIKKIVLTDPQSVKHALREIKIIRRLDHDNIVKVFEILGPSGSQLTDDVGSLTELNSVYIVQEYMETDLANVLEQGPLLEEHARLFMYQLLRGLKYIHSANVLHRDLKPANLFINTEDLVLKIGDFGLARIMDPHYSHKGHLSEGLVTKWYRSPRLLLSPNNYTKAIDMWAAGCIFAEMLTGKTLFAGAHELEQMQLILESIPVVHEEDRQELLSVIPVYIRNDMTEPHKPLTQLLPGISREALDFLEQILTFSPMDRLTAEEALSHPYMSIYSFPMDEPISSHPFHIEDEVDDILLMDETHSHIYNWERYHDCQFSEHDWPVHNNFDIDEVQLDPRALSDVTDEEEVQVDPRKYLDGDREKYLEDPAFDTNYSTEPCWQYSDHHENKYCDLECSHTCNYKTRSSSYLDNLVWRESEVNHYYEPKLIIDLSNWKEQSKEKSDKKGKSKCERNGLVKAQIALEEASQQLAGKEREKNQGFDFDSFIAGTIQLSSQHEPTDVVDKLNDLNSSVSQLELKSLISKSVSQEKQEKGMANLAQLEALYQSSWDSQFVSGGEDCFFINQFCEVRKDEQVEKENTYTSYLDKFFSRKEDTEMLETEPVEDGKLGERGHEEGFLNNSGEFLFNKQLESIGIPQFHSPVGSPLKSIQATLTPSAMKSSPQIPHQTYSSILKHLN

Row | SMILES | ΔTm
21 | OC[C@H]1O[C@@H](n2cnc3cc(Cl)c(Cl)cc32)[C@H](O)[C@@H]1O | -0.1 °C
22 | Cc1cncc2cccc(S(=O)(=O)N3CCCNC[C@@H]3C)c12 | 0 °C
23 | Nc1ncnc2c1c(I)cn2[C@@H]1O[C@H](CO)[C@@H](O)[C@H]1O | -0.1 °C
24 | Nc1n[nH]c2nnc(-c3c(-c4ccccc4)nn4ccccc34)cc12 | 1.3 °C
25 | O=C(O)Cc1ccc(O)c([N+](=O)[O-])c1 | 0.8 °C

molecular target: T2, Serine/threonine-protein kinase Nek2 (Homo sapiens) (UniProt P51955)
T2 sequence (whole entry): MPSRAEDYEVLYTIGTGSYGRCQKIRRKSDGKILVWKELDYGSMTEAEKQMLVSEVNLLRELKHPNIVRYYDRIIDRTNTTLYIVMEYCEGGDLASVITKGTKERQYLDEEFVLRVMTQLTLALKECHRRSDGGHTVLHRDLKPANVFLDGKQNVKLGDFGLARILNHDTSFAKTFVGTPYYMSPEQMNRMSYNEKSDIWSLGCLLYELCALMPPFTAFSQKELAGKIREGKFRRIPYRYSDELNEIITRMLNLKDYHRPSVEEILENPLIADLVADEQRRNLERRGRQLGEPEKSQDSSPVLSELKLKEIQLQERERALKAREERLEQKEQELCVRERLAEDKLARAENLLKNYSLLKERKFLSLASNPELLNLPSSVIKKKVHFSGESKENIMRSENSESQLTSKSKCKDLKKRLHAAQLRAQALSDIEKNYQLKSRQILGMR

Row | SMILES | ΔTm
26 | OC[C@H]1O[C@@H](n2cnc3cc(Cl)c(Cl)cc32)[C@H](O)[C@@H]1O | 0.5 °C
27 | Cc1cncc2cccc(S(=O)(=O)N3CCCNC[C@@H]3C)c12 | -0.2 °C
28 | Nc1ncnc2c1c(I)cn2[C@@H]1O[C@H](CO)[C@@H](O)[C@H]1O | 0.4 °C
29 | Nc1n[nH]c2nnc(-c3c(-c4ccccc4)nn4ccccc34)cc12 | -0.2 °C
30 | O=C(O)Cc1ccc(O)c([N+](=O)[O-])c1 | 1.9 °C

molecular target: Cyclin-dependent kinase 16 (Homo sapiens) (UniProt Q00536)
Sequence (Q00536 whole entry): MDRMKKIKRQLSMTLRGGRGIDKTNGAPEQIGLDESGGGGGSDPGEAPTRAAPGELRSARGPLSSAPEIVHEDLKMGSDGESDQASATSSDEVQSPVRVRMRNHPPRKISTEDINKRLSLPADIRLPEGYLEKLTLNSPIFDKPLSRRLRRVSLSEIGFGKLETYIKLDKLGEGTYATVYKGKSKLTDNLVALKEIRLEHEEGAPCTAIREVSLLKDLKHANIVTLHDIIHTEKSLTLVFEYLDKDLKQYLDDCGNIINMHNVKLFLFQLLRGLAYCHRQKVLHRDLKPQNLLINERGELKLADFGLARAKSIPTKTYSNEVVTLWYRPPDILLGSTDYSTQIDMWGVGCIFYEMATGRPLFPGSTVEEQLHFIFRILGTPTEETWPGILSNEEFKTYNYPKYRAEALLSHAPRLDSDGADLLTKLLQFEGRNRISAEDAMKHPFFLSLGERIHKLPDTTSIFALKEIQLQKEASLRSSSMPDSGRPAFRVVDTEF

Row | SMILES | ΔTm
31 | OC[C@H]1O[C@@H](n2cnc3cc(Cl)c(Cl)cc32)[C@H](O)[C@@H]1O | -0.3 °C
32 | Cc1cncc2cccc(S(=O)(=O)N3CCCNC[C@@H]3C)c12 | -0.6 °C
33 | Nc1ncnc2c1c(I)cn2[C@@H]1O[C@H](CO)[C@@H](O)[C@H]1O | 0.1 °C
34 | Nc1n[nH]c2nnc(-c3c(-c4ccccc4)nn4ccccc34)cc12 | 0.2 °C
35 | O=C(O)Cc1ccc(O)c([N+](=O)[O-])c1 | -1.2 °C

molecular target: Serine/threonine-protein kinase PLK1 (Homo sapiens) (UniProt P53350)
Sequence (P53350 whole entry): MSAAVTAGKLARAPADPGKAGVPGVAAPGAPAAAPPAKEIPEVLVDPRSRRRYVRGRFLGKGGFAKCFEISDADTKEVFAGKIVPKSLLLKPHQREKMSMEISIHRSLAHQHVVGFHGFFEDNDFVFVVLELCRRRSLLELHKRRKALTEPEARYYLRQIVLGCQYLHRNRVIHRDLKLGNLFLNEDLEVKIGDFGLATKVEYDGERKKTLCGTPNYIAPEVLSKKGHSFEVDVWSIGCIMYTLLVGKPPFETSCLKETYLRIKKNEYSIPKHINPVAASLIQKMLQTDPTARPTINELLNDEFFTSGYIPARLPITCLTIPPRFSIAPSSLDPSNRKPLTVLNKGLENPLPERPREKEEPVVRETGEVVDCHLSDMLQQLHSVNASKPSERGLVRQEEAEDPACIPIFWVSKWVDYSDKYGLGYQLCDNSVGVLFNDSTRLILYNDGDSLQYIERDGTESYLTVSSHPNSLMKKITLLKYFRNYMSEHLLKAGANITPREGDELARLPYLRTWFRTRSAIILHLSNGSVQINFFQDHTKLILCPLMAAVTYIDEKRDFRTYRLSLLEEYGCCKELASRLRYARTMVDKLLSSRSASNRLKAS

Row | SMILES | ΔTm
36 | OC[C@H]1O[C@@H](n2cnc3cc(Cl)c(Cl)cc32)[C@H](O)[C@@H]1O | -0.5 °C
37 | Cc1cncc2cccc(S(=O)(=O)N3CCCNC[C@@H]3C)c12 | 0.7 °C
38 | Nc1ncnc2c1c(I)cn2[C@@H]1O[C@H](CO)[C@@H](O)[C@H]1O | 1 °C
39 | Nc1n[nH]c2nnc(-c3c(-c4ccccc4)nn4ccccc34)cc12 | -0.3 °C
40 | O=C(O)Cc1ccc(O)c([N+](=O)[O-])c1 | 0.4 °C

molecular target: Serine/threonine-protein kinase 10 (Homo sapiens) (UniProt O94804)
Sequence (O94804 whole entry, looked up): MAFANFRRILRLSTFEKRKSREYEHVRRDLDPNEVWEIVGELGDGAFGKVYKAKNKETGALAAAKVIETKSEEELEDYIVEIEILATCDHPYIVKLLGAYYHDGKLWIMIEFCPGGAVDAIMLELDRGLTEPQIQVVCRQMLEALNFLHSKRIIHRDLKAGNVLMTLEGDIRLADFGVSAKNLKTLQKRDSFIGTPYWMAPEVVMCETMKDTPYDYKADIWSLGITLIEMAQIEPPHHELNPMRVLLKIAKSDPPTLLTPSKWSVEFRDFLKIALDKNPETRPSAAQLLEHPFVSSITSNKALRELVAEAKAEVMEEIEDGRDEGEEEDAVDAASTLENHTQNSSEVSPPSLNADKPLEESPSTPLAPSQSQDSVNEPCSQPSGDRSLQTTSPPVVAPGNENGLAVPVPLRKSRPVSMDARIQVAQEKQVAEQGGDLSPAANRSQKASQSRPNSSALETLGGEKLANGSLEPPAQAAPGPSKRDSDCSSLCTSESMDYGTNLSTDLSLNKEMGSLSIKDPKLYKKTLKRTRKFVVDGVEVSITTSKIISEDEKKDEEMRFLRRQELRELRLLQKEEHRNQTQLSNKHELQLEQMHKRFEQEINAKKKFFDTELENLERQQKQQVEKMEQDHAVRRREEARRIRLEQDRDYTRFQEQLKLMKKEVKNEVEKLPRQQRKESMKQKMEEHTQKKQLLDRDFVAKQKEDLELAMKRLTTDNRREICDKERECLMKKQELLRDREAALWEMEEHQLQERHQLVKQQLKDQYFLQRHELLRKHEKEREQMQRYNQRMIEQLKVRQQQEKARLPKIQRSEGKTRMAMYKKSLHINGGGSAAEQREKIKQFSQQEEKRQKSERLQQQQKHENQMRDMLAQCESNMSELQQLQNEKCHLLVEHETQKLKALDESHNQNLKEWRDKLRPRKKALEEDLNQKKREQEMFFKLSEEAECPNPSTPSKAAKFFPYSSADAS

Row | SMILES | ΔTm
41 | OC[C@H]1O[C@@H](n2cnc3cc(Cl)c(Cl)cc32)[C@H](O)[C@@H]1O | -0.7 °C
42 | Cc1cncc2cccc(S(=O)(=O)N3CCCNC[C@@H]3C)c12 | 3.5 °C
43 | Nc1ncnc2c1c(I)cn2[C@@H]1O[C@H](CO)[C@@H](O)[C@H]1O | 4.7 °C
44 | Nc1n[nH]c2nnc(-c3c(-c4ccccc4)nn4ccccc34)cc12 | -0.2 °C
45 | O=C(O)Cc1ccc(O)c([N+](=O)[O-])c1 | 0 °C

molecular target: T3, Serine/threonine-protein kinase 4 (Homo sapiens) (UniProt Q13043)
T3 sequence (whole entry): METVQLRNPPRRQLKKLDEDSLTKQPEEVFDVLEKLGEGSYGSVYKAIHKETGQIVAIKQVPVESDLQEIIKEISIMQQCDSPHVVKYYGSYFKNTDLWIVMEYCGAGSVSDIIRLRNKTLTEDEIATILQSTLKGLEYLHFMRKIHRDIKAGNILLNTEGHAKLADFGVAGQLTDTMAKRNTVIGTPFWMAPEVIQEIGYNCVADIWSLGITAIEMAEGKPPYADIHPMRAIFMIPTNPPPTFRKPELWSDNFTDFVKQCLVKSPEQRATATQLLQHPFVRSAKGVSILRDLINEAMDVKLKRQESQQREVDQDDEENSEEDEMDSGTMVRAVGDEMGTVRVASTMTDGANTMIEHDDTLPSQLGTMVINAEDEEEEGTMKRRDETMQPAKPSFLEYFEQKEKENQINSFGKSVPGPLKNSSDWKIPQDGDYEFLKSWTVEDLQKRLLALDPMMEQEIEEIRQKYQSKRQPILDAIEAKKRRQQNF

Row | SMILES | ΔTm
46 | OC[C@H]1O[C@@H](n2cnc3cc(Cl)c(Cl)cc32)[C@H](O)[C@@H]1O | 0.2 °C
47 | Cc1cncc2cccc(S(=O)(=O)N3CCCNC[C@@H]3C)c12 | 3.3 °C
48 | Nc1ncnc2c1c(I)cn2[C@@H]1O[C@H](CO)[C@@H](O)[C@H]1O | 4.7 °C
49 | Nc1n[nH]c2nnc(-c3c(-c4ccccc4)nn4ccccc34)cc12 | 0.4 °C
50 | O=C(O)Cc1ccc(O)c([N+](=O)[O-])c1 | 0.4 °C
